Assay results from patent US20160362478A1, “CD4-MIMETIC SMALL MOLECULES SENSITIZE HUMAN IMMUNODEFICIENCY VIRUS TO VACCINE-ELICITED ANTIBODIES” (priority 2014, published 2016).
pIC50: −log10 of the molar value.

How the values were obtained:
[1] = system: HIV-1 transmitted/founder viruses; assay: Inhibition and 17b sensitization of transmitted/founder viruses; assay type: cell-based
Method: (§1) Infection by single-round luciferase viruses. Cf2Th-CCR5-CD4 target cells were seeded at a density of 6×10^3 cells/well in 96-well luminometer-compatible tissue culture plates (PerkinElmer) 24 h before infection. […] In the case of sensitization assays, a constant concentration of compounds was incubated with virus for 30 min at 37° C.; then, 17b or other antibodies (0-100 μg/mL) were added to the virus/compound mixture and incubated for an additional 30 min at 37° C. The mixtures were then added to the target cells and incubated for 48 h at 37° C.; after this time, the medium was removed from each well, and the cells were lysed by the addition of 30 μL passive lysis buffer (Promega) and three freeze-thaw cycles. An EG&G Berthold Microplate Luminometer LB 96V was used to measure the luciferase activity of each well after the addition of 100 μL of luciferin buffer (15 mM MgSO4, 15 mM KPO4, pH 7.8, 1 mM ATP, and 1 mM dithiothreitol) and 50 μL of 1 mM Firefly D-Luciferin Free Acid 99% (Prolume).
The ability of (+)-DMJ-II-121 to sensitize HIV-1 transmitted/founder viruses to neutralization by the 17b antibody (FIG. 8A) and antisera elicited by the 3CC gp120 core immunogen (FIG. 8B) was examined. In these experiments, the recombinant viruses were pseudotyped with the HIV-1 Envs derived from HIV-1 transmitted/founder viruses. Recombinant HIV-1 pseudotyped with the primary R5 HIV-1 JR-FL and the amphotropic murine leukemia virus (A-MLV) Envs served as positive and negative controls, respectively. HIV-1 neutralization was examined in the presence of sub-neutralizing concentrations of (+)-DMJ-II-121 and different concentrations of the 17b antibody or sera.

[2] = system: HIV-1 transmitted/founder viruses; assay: Sensitization of transmitted/founder viruses to 3CC gp120 core antisera; assay type: cell-based
Method: as §1
Animal inoculations and analysis of antisera. Approximately 12-week-old female New Zealand White rabbits were housed at the AAALAC-accredited facilities at Bioqual (Rockville, Md.) under specific pathogen-free conditions. […] Serum was prepared, heat inactivated, and assessed for anti-gp120 ELISA titers and the presence neutralizing antibodies. […]

A-MLV = assay: Infection by control virus pseudotyped with A-MLV envelope glycoproteins; assay type: cell-based, amphotropic murine leukemia virus; conditions: at 100 μM
Method: (§2) Recombinant luciferase viruses: 293T human embryonic kidney cells were co-transfected with plasmids expressing the pCMVΔP1Δenv HIV-1 Gag-Pol packaging construct, the R5 YU2 envelope glycoproteins, or the envelope glycoprotein of the control amphotropic murine leukemia virus (A-MLV), and the firefly luciferase-expressing vector at a DNA ratio of 1:1:3 μg using the Effectene transfection reagent (Qiagen). Co-transfection produced single-round, replication-defective viruses. The virus-containing supernatants were harvested 36-40 h after transfection, spun, aliquoted, and frozen at −80° C. until further use. The reverse transcriptase (RT) activities of all viruses were measured as described in Rho, H. M., et al. Virology 1981, 112, 355-360.
(§3) Infection by single-round luciferase viruses. Cf2Th-CCR5-CD4 target cells were seeded at a density of 6×10^3 cells/well in 96-well luminometer-compatible tissue culture plates (PerkinElmer) 24 h before infection. […] In the case of sensitization assays, a constant concentration of compounds was incubated with virus for 30 min at 37° C.; then, 17b or other antibodies (0-100 μg/mL) were added to the virus/compound mixture and incubated for an additional 30 min at 37° C. […]

HIV-1 = assay: Inhibition of HIV-1 infection (overview statement); assay type: cell-based; conditions: Human immunodeficiency virus 1, read-out: IC50, inhibition of HIV-1 infection
HIV-1 YU2 [3] = assay: Sensitization assay: antibody neutralization of HIV-1 YU2 with CD4-mimetic compound; assay type: cell-based; conditions: sub-neutralizing compound concentrations
Method: as §1
The ability of (+)-DMJ-I-228 and (+)-DMJ-II-121 to each sensitize HIV-1 to neutralization by antibodies was examined using the single-round infection of Cf2Th-CD4/CCR5 cells by recombinant HIV-1 encoding firefly luciferase. The recombinant viruses were pseudotyped with the HIV-1 Envs derived from the primary R5 HIV-1 JR-FL and YU2 isolates. […]

HIV-1 JR-FL [4] = assay: Sensitization of HIV-1 JR-FL to neutralization by rabbit antisera elicited by gp120 cores; assay type: cell-based
Method: as §1
Animal inoculations and analysis of antisera. Approximately 12-week-old female New Zealand White rabbits were housed at the AAALAC-accredited facilities at Bioqual (Rockville, Md.) under specific pathogen-free conditions. At 4-week intervals, rabbits were inoculated intramuscularly with […] of affinity-purified protein formulated in GlaxoSmithKline Adjuvant System AS01B by splitting the protein-adjuvant mix in the two hind legs. Serum was prepared, heat inactivated, and assessed for anti-gp120 ELISA titers and the presence neutralizing antibodies.
(+)-DMJ-I-228 and (+)-DMJ-II-121 were examined to determine if they could sensitize HIV-1 to neutralization by antisera elicited by an Env immunogen. […] These stabilized gp120 cores were derived from the laboratory-adapted HIV-1 HXBc2 strain and lack the V1, V2, and V3 variable regions. […]

[5] = target: wild-type HIV-1 YU2 gp120 glycoprotein (Human immunodeficiency virus type 1 group M subtype B, UniProt P35961); assay: Isothermal titration calorimetry, binding to gp120; conditions: ITC, 25° C.
Method: Isothermal Titration Calorimetry. Thermodynamic parameters for the binding of the different inhibitors to gp120 were obtained by isothermal titration calorimetry (ITC) using a VP-ITC microcalorimeter from MicroCal/GE Healthcare (Northampton, Mass., USA). The titrations were performed at 25° C. by injecting 10 μL aliquots of inhibitor solution into the calorimetric cell (volume ˜1.4 mL) containing gp120 at a concentration of 2 μM. […] In all titration experiments, gp120 and the different inhibitors were equilibrated with PBS, pH 7.4, with 2% DMSO. The heat evolved upon each injection of inhibitor was obtained by integration of the calorimetric signal. The heat associated with inhibitor binding to gp120 was obtained by subtracting the heat of dilution from the heat of reaction. The enthalpy change (ΔH) and association constant (Ka=[…]) were obtained by nonlinear regression of the data.
The thermodynamics of the binding of each compound to the wild-type HIV-1 YU2 gp120 glycoprotein was analyzed by isothermal titration calorimetry.

HIV-1 JR-FL [6] = assay: Infection of Cf2Th-CD4/CCR5 cells by single-round luciferase virus with HIV-1 JR-FL Env; assay type: cell-based; conditions: for pIC50: Human immunodeficiency virus 1, Cf2Th-CD4/CCR5, read-out: IC50, inhibition of HIV-1 JR-FL infection; for inhibition of HIV-1 JR-FL virus relative to parental NBD-556: cells expressing CD4 and CCR5
Method: as §2, §1
The ability of selected CD4-mimetic compounds to inhibit HIV-1 entry was examined. […] Recombinant HIV-1 expressing the firefly luciferase gene was pseudotyped with different envelope glycoproteins, either HIV-1 JR-FL Env or, as a control, the amphotropic murine leukemia virus (A-MLV) envelope glycoproteins. The recombinant viruses were incubated with cells expressing CD4 and CCR5 in the presence of different concentrations of the compounds.

HIV-1 JR-FL [7] = assay: Sensitization assay: antibody neutralization of HIV-1 JR-FL with CD4-mimetic compound; assay type: cell-based; conditions: for sensitization of HIV-1 JR-FL to neutralization by 17b and 39F antibodies: sub-neutralizing compound concentrations
Method: as §1
The ability of (+)-DMJ-I-228 and (+)-DMJ-II-121 to each sensitize HIV-1 to neutralization by antibodies was examined using the single-round infection of Cf2Th-CD4/CCR5 cells by recombinant HIV-1 encoding firefly luciferase. The recombinant viruses were pseudotyped with the HIV-1 Envs derived from the primary R5 HIV-1 JR-FL and YU2 isolates. Recombinant HIV-1 pseudotyped with the amphotropic murine leukemia virus (A-MLV) Env was used as a control for specificity. HIV-L neutralization was examined in the presence of sub-neutralizing concentrations of the CD4-mimetic compounds and different concentrations of monoclonal antibodies. […] The 17b antibody recognizes a well-conserved CD4i epitope on the HIV-1 gp120 core that is not formed or exposed in the unliganded Env of primary HIV-1 strains. The 39F antibody recognizes a conformation-dependent epitope in the gp120 V3 region of primary R5 HIV-1. […] and (+)-DMJ-II-121 each render primary HIV-1 isolates sensitive to neutralization by monoclonal antibodies directed against CD4i and V3 epitopes on the gp120 Env.

HIV-1 JR-FL [8] = assay: Cold inactivation of recombinant virus on ice; assay type: cell-based; conditions: compound 50 μM
Method: Cold Inactivation. […] Cf2Th-CCR5-CD4 target cells were seeded at a density of […] cells/well in a 96-well luminometer-compatible tissue-culture plate (PerkinElmer) 24 h before infection. The mixtures were then added to target cells and incubated for 48 h at 37° C.; after this time, the medium was removed from each well, and the cells were lysed by the addition of 30 μL passive lysis buffer (Promega) and three freeze-thaw cycles. An EG&G Berthold Microplate Luminometer LB 96V was used to measure the luciferase activity of each well after the addition of 100 μL of luciferin buffer (15 mM MgSO4, 15 mM KPO4, pH 7.8, 1 mM ATP, and 1 mM dithiothreitol) and 50 μL of 1 mM Firefly D-Luciferin Free Acid 99% (Prolume).

HIV-1 YU2 [9] = assay: Infection of Cf2Th-CD4/CCR5 cells by single-round luciferase virus with HIV-1 YU2 Env; assay type: cell-based; conditions: Human immunodeficiency virus 1, Cf2Th-CD4/CCR5, read-out: IC50, inhibition of HIV-1 YU2 infection
Method: as §2, §3

[10] = system: primary CD4 T cells infected with transmitted/founder (T/F) viruses and their 6-month counterparts; assay: Recognition of primary CD4 T cells infected with primary HIV-1 by HIV-1+ sera; assay type: cell-based, human; conditions: data not shown
[11] = target: HIV-1 JR-FL envelope glycoproteins (Env) (HIV-1 JR-FL); assay: cell-based or functional assay
[12] = target: HIV-1 YU2 envelope glycoproteins (Env) (HIV-1 YU2) (UniProt P35961); assay: cell-based or functional assay

| Molecule | inhibition of A-MLV infection (A-MLV) | pIC50 (HIV-1) | sensitization of HIV-1 YU2 to neutralization by 17b and 39F antibodies (HIV-1 YU2 [3]) | ability to bind monomeric gp120 relative to NBD-556 [5] | pIC50 (HIV-1 JR-FL [6]) | inhibition of HIV-1 JR-FL virus relative to parental NBD-556 (HIV-1 JR-FL [6]) | sensitization of HIV-1 JR-FL to neutralization by 17b and 39F antibodies (HIV-1 JR-FL [7]) | half-life of HIV-1 JR-FL infectivity on ice in the presence of the compound (HIV-1 JR-FL [8]) [h] | pIC50 (HIV-1 YU2 [9]) | neutralization of pseudotyped virus, no CD4-mimetic compound [11] [µg/mL] | neutralization of pseudotyped virus, no CD4-mimetic compound [12] [µg/mL] | also measured |
| --- | --- | --- | --- | --- | --- | --- | --- | --- | --- | --- | --- | --- |
| N=C(N)NC[C@H]1Cc2ccccc2[C@@H]1NC(=O)C(=O)Nc1ccc(Cl)c(F)c1 [(+)-DMJ-II-121] | Neither (+)-DMJ-I-228 nor (+)-DMJ-II-121 inhibited A-MLV infection | 5.64 | each sensitized HIV-1 YU2 and JR-FL to neutralization by the 17b and 39F antibodies | significant improvement in the ability to bind monomeric gp120 | 4.56 | specifically inhibited the HIV-1 JR-FL virus with an improved potency | each sensitized HIV-1 YU2 and JR-FL to neutralization by the 17b and 39F antibodies | 1.9 | 5.44 |  |  | number of transmitted/founder viruses sensitive to compound inhibition but not sensitized to 17b neutralization [1]: Three; sensitivity of transmitted/founder virus TA5 to the compound alone ([1]; TA5 virus): did not exhibit sensitivity; number of 17b-resistant transmitted/founder HIV-1 sensitized to neutralization by the 17b antibody ([1]; of ten 17b-resistant viruses, 50 μM compound): six; sensitivity of TD12 and B5 transmitted/founder viruses to 3CC antisera in the presence of compound [2]: increased sensitivity to neutralization by 3CC antisera; sensitization of HIV-1 JR-FL to neutralization by sera from rabbits immunized with 3CC or 4CC stabilized gp120 cores (HIV-1 JR-FL [4]): sensitized HIV-1 JR-FL to neutralization; sera elicited by non-stabilized V3S core that neutralized HIV-1 JR-FL after incubation with compound (HIV-1 JR-FL [4]): None of the rabbit sera; sera from rabbits immunized with the 2CC gp120 core that neutralized HIV-1 JR-FL only in the presence of compound (HIV-1 JR-FL [4]; five sera): Three of the five sera |
| N=C(N)N[C@H]1Cc2ccccc2[C@@H]1NC(=O)C(=O)Nc1ccc(Cl)c(F)c1 [(+)-DMJ-I-228] | Neither (+)-DMJ-I-228 nor (+)-DMJ-II-121 inhibited A-MLV infection | 4.64 | each sensitized HIV-1 YU2 and JR-FL to neutralization by the 17b and 39F antibodies | significant improvement in the ability to bind monomeric gp120 | 4.06 | specifically inhibited the HIV-1 JR-FL virus with an improved potency | each sensitized HIV-1 YU2 and JR-FL to neutralization by the 17b and 39F antibodies | 9.1 | 4.33 |  |  | recognition of cells infected with four primary viruses by HIV-1+ sera [10]: significantly enhance recognition |
| 17b antibody |  |  |  |  |  |  |  |  |  | > 100 | > 100 | IC50, inhibition of HIV-1 JR-FL entry into cells co-expressing CD4 and CCR5, in the presence of 30 µM (+)-DMJ-II-121 [11]: 0.6 µg/mL |
| 39F antibody |  |  |  |  |  |  |  |  |  | > 100 | > 100 |  |
| CC1(C)CC(NC(=O)C(=O)Nc2ccc(Cl)cc2)CC(C)(C)N1 [NBD-556, reference compound] |  |  |  |  |  |  |  | 15.7 |  |  |  | effect on neutralization of HIV-1 JR-FL by the 17b antibody (HIV-1 JR-FL [7]): minimally affected; effect on neutralization of HIV-1 JR-FL by the 39F antibody (HIV-1 JR-FL [7]; only at high concentrations): weakly increase |
